# Measurements: US5049548A, “Renin-inhibitory di-, tri-, and tetrapeptides” (Merck & Co., Inc., priority 1989, dated 1991)
# Square brackets hold non-standard residues; d marks the D form. Peptide text beside a SMILES is read from it. * marks the point of attachment. Sta = CC(C)C[C@H](N)[C@@H](O)CC(=O)O; Isovaleryl = CC(C)CC(=O)*
# Target: T1, human plasma renin (Homo sapiens, UniProt P00797)
# T1 construct: determined against human plasma renin; from tissue; host or cells: human plasma
# T1 sequence (P00797 67-406): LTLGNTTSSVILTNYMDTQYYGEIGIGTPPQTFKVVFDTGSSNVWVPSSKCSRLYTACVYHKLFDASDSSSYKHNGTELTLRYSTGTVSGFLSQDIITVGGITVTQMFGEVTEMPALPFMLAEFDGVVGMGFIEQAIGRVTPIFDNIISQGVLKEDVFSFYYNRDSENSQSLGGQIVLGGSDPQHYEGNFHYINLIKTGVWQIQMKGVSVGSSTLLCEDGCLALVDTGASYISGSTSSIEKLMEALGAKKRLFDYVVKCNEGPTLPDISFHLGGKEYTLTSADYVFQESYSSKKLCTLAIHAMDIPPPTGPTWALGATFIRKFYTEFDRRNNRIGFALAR
# Experiment: Renin-inhibitory potency against human plasma renin
# Assay type: biochemical
# Details: not given
# Method: Renin-inhibitors potencies were determined against human plasma renin and are expressed as IC50 values.
row,Molecule,IC50 [nM]
1,"CCCC[C@H](NC(=O)[C@H](Cc1ccccc1)N[C@@H]1CN2CCC1CC2)C(=O)N[C@@H](CC1CCCCC1)[C@@H](O)C(=O)OCC [Example 30, N^α -(Quinuclidin-3(S)-yl)Phe-Nle-norACHPA-OEt]",91
2,N^α -(Quinuclidin-3-yl)Phe-His-ACHPA-Ile-NHCH2 (pyridin-4-yl) [Example 24],2
3,"CCCC[C@H](NC(=O)[C@H](Cc1ccccc1)N[C@@H]1CN2CCC1CC2)C(=O)N[C@@H](CC1CCCCC1)[C@@H](O)CC(=O)N[C@H](C(=O)NCc1ccncc1)[C@@H](C)CC [Example 20, N^α -(quinuclidin-3-yl)Phe-Nle-ACHPA-Ile-AMP]",5
4,N^α -[(pyridin-2-yl)methyl]Phe-His-ACHPA-Ile-NHCH2 (pyridin-4-yl) [Example 31],7
5,[N^α -(N-Methylquinuclidin-3(S)-yl)Phe-His-ACHPA-Ile-NH-CH2 -(pyridin-4-yl)]^+ I^- [Example 23],1.7
6,"CCCC[C@H](NC(=O)[C@H](Cc1ccccc1)N(C)[C@@H]1CN2CCC1CC2)C(=O)N[C@@H](CC1CCCCC1)[C@@H](O)CC(=O)N[C@H](C(=O)NCc1ccncc1)[C@@H](C)CC [Example 21, N^α -Methyl-N^α -(quinuclidin-3(S)-yl)Phe-Nle-ACHPA-Ile-NHCH2 (pyridin-4-yl)]",150
7,N^α -(Quinuclidin-3(S)-yl)Phe-His-Cal[CH(OH)CH2 ]Val-NH-n-butyl [Example 27],1.4

# Tested on: hog renin
# Experiment: not given
# Details: after the injection of hog renin into nephrectomized rats; cited from earlier work
row,Molecule,blood pressure in vivo
1,CC(C)CC(=O)N[C@H](C(=O)N[C@H](C(=O)N[C@@H](CC(C)C)[C@@H](O)CC(=O)N[C@@H](C)C(=O)N[C@@H](CC(C)C)[C@@H](O)CC(=O)O)C(C)C)C(C)C [pepstatin] (Isovaleryl-VV[Sta]A[Sta]-OH),reduces blood pressure in vivo
